Among the data in the SangsterLogP compilation are logD values, retold here.

The nature of one data set: method code SF, from DOI: 10.1515/znb-1972-0211, PMID: 4401834. The settings on record: pH 7.0.
As a reminder, the logD is the decadic logarithm of the distribution of all forms, ionised or not, between an organic phase and buffer at a given pH. A low value points to a more hydrophilic compound. `COC(=O)/C(C#N)=N\Nc1cc(Cl)c(Cl)cc1Cl` yielded a pH-dependent lipophilicity (logD) of 5.15.

The nature of a further data set: method code SF-AS, from DOI: 10.1515/znb-1972-0211, PMID: 4401834. The settings on record: pH 7.0.
`COC(=O)C(C#N)=NNc1cc(C#N)ccc1C#N` gave a logD of 2.81.

`CC(C)(C)C(=O)C(C#N)=NNc1cccc(Cl)c1` registered a logD of 4.62.

As for `CCOC(=O)/C(C#N)=N\Nc1ccc(Cl)c(C(F)(F)F)c1`, the logD was 4.86.

Consider `CC(C)(C)C(=O)C(C#N)=NNc1cc(Cl)c(Cl)cc1Cl`, for which the log distribution coefficient (logD) was 5.86.

Compound `COC(=O)C(C#N)=NNc1ccc(S(=O)(=O)C(F)(F)F)cc1` registered a log distribution coefficient (logD) of 4.22.

Compound `CCS(=O)(=O)c1ccc(C(F)(F)F)cc1NN=C(C#N)C(C)=O` displayed a logD of 4.22.

Consider `CCOC(=O)C(C#N)=NNc1cc(Cl)c(Cl)c(Cl)c1`, for which the logD is 5.03.

With `CC(=O)C(C#N)=NNc1ccc(SC(F)(F)F)cc1`, the log distribution coefficient (logD) amounted to 5.04.

Take `COC(=O)/C(C#N)=N\Nc1cccc(Cl)c1`: the logD is 3.56.

With `CC(=O)C(C#N)=NNc1ccc2c(c1)OC(F)(F)C(F)(F)O2`, the logD was determined as 5.31.

Take `COC(=O)C(C#N)=NNc1cc(C(F)(F)F)ccc1Cl`: the log distribution coefficient (logD) was 4.42.

In the case of `CCOC(=O)/C(C#N)=N\Nc1cc(Cl)c(Cl)cc1Cl`, the logD was found to be 5.21.

In turn, `COC(=O)C(C#N)=NNc1cccc(C(F)(F)F)c1` registered a log distribution coefficient (logD) of 3.78.

Regarding `CC(=O)C(C#N)=NNc1ccccc1Cl`, the logD stood at 4.01.

Compound `COC(=O)C(C#N)=NNc1ccccc1C(F)(F)F` showed a logD of 3.72.

With `CC(C)(C)C(=O)C(C#N)=NNc1ccc2c(c1)OC(F)(F)C(F)(F)O2`, the logD was determined as 4.96.

Consider `CC(C)(C)C(=O)C(C#N)=NNc1ccc(Cl)cc1C(F)(F)F`, for which the logD came out at 5.67.

Compound `CCOC(=O)/C(C#N)=N\Nc1cc(Cl)cc(Cl)c1` returned a logD of 3.82.

The compound `CCOC(=O)/C(C#N)=N\Nc1cccc(Cl)c1` registered a logD of 3.94.

As to `COC(=O)/C(C#N)=N\Nc1cc(C(F)(F)F)cc(C(F)(F)F)c1`, the logD stood at 5.02.

`COC(=O)/C(C#N)=N\Nc1cc(Cl)cc(Cl)c1` came in with a logD of 4.5.

`CC(=O)C(C#N)=NNc1cccc(Cl)c1` had a pH-dependent lipophilicity (logD) of 3.91.

Compound `Cc1cc(Cl)ccc1NN=C(C#N)C(=O)C(C)(C)C` displayed a log distribution coefficient (logD) of 4.31.

Turning to `COC(=O)/C(C#N)=N\Nc1ccc(SC(F)(F)F)cc1`, the pH-dependent lipophilicity (logD) is 4.27.

Turning to `CC(=O)C(C#N)=NNc1ccc(Cl)c(Cl)c1`, the log distribution coefficient (logD) is 4.56.

With `CC(=O)C(C#N)=NNc1cc(Cl)cc(Cl)c1`, the log distribution coefficient (logD) turned out to be 4.68.

As to `CCOC(=O)C(C#N)=NNc1cc(C(F)(F)F)ccc1Cl`, the logD came out at 4.45.

For the compound `COC(=O)C(C#N)=NNc1ccccc1`, the log distribution coefficient (logD) was 2.59.

Consider `COC(=O)C(C#N)=NNc1ccc2c(c1)OC(F)(F)C(F)(F)O2`, for which the log distribution coefficient (logD) turned out to be 4.86.

`COC(=O)C(C#N)=NNc1ccc(C(F)(F)F)cc1` displayed a logD of 3.79.

`CC(=O)C(C#N)=NNc1ccc(Cl)cc1C`: the log distribution coefficient (logD) is 4.28.

Compound `CCOC(=O)C(C#N)=NNc1ccccc1Cl` displayed a log distribution coefficient (logD) of 3.38.

In turn, `COC(=O)/C(C#N)=N\Nc1cc(Cl)c(Cl)c(Cl)c1` returned a log distribution coefficient (logD) of 5.22.

With `CC(=O)C(C#N)=NNc1ccc(Cl)cc1`, the logD turned out to be 4.13.

Consider `CC(C)(C)C(=O)C(C#N)=NNc1cc(C(F)(F)F)cc(C(F)(F)F)c1`, for which the logD came to 5.44.
